Experimental data: patent US8058242B2, “Chimeric proteins with natriuretic activity” (The University of Queensland, priority 2004, dated 2011)
Values joined by “and” are separate entries in the source; they are usually repeats but may differ in a detail not shown here. Identical values can stand only once. Positions of bridges follow the written chain, without caps; N, C: chain ends. Residues, ends and D or L forms follow the SMILES beside them.

How the values were obtained:
[1] = system: denuded aortic rings, GC A receptor; assay: Relaxation of noradrenaline constricted endothelium-denuded aortic rings (Example 11); design: species or system rat; details: GC-A mediated
In short: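 Endothelium-denuded thoracic aortic rings (5 mm) from male Sprague Dawley rats were held at 10 g tension in carbogenated physiological salt solution at 37 °C. Denudation was confirmed by under 10% ACh (10 μM) relaxation after phenylephrine (0.3 μM). Rings constricted with noradrenaline, scaled to 40 mM KCl contraction, were relaxed with increasing peptide doses, with at least 3 rings per peptide.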

[2] = molecular target: T1, NPR-A signaling in HeLa cells (Homo sapiens, UniProt P16066); assay: cGMP AlphaScreen assay in HeLa cells (Examples 14, 15); format: cell-based; details: 30 minutes at 37° C.
T1 construct: Cyclic GMP (cGMP) elevation in HeLa cells in response to Natriuretic Peptide stimulation; endogenous in cells; host or cells: HeLa cells
T1 sequence (P16066 33-1061): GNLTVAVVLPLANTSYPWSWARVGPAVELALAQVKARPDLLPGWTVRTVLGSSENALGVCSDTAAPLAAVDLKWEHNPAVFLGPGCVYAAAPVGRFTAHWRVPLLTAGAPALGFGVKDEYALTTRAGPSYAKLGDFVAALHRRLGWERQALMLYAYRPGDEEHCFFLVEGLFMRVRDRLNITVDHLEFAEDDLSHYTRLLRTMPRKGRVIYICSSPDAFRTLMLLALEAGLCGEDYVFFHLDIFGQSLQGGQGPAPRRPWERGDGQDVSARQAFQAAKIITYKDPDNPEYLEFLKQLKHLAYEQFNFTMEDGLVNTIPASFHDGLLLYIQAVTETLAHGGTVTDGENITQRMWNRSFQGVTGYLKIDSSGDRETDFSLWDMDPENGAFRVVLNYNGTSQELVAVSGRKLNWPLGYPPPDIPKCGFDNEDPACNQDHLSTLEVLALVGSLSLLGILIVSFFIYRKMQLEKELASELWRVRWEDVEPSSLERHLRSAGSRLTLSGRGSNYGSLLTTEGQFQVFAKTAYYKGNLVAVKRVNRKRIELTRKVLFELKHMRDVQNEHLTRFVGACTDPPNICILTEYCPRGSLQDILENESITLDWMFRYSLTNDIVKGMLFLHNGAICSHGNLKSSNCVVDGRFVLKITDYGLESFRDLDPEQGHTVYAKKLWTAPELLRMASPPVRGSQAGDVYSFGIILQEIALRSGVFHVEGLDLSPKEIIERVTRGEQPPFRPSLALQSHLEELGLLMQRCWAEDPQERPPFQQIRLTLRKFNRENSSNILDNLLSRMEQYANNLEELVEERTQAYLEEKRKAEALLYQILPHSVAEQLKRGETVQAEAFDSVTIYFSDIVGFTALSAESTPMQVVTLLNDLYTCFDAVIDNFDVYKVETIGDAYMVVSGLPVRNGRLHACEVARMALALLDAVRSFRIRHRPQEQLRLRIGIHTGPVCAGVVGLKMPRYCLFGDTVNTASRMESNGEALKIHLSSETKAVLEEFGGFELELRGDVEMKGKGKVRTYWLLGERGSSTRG
Experimental: HeLa cells were maintained in RPMI cell culture medium (Gihco Invitrogen, Mt Waverley, Australia) supplemented with 10% Foetal Bovine Serum (Cambrex Bio Science, Rockland, USA). Upon reaching confluence, cells were sub-cultured such that they would be 70-90% confluent at time of assay.
Cyclic GMP (cGMP) elevation in HeLa cells in response to Natriuretic Peptide stimulation was performed using a cGMP AlphaScreen kit (PerkinElmer, Boston, USA), as follows for normal experiments: Cells were detached, pelleted to remove growth medium, and resuspended in Stimulation Buffer (Hank's Balanced Salt Solution, 0.1% Bovine Serum Albumin [BSA] (Sigma-Aldrich, Castle Hill, Australia), 1 mM 3-Isobutyl-1-methylxanthine [IBMX] (Sigma-Aldrich, Castle Hill, Australia)) and diluted to 6×10^6 cells per mL (30 000 cells per 5 μL). 5 μL of cells were added to wells of white 384-well OptiPlates (PerkinElmer, Boston, USA), and stimulated with increasing concentrations of peptide for 30 minutes at 37° C. Cells were then lysed with 10 μL Lysis buffer (dH2O, 0.3% Tween-20 (Sigma-Aldrich, Castle Hill, Australia), 5 mM HEPES (JRH Biosciences, Kansas, USA) and 0.1% BSA) and 5 μL acceptor bead mix (10 μL per mL acceptor beads and 1/3000 anti-cGMP antibody (BioVision, Mountain View, USA) in lysis buffer) added per well in the dark. Plates were incubated in the dark at room temperature for 30 minutes, then 5 μL donor bead mix (10 μL per ML donor beads and 0.3 nM biotinylated cGMP in lysis buffer) was added per well in the dark and the plate incubated overnight at room temperature. Signal was read using an EnVision plate reader (PerkinElmer, Boston, USA) and data analysed using Prism software. The cGMP standard curve was performed as per manufacturer's instructions.
To examine whether TNPc and synthetic analogs produced in the inventors' laboratory could stimulate NPR-A signaling, cGMP elevations in HeLa cells in response to these peptides were measured, as described above.

[3] = −Log10EC50 (pEC50) ± Standard Error, cGMP accumulation in HeLa cells

Row | SMILES | Mean relaxation SEM of denuded aortic rings expressed as % of KCl response [1] | EC50 [2, 3] | EC50 ([2]; EC50, cGMP accumulation in HeLa cells)
1 | CC[C@H](C)[C@@H]1NC(=O)[C@H](CCCNC(=N)N)NC(=O)[C@H](CC(=O)O)NC(=O)[C@H](CCSC)NC(=O)[C@H](CCCNC(=N)N)NC(=O)CNC(=O)CNC(=O)[C@H](Cc2ccccc2)NC(=O)[C@@H](NC(=O)[C@H](CO)NC(=O)[C@H](CO)NC(=O)[C@H](CCCNC(=N)N)NC(=O)[C@H](CCCNC(=N)N)NC(=O)[C@H](CC(C)C)NC(=O)[C@@H](N)CO)CSSC[C@@H](C(=O)N[C@@H](CC(N)=O)C(=O)N[C@@H](CO)C(=O)N[C@@H](Cc2ccccc2)C(=O)N[C@@H](CCCNC(=N)N)C(=O)N[C@@H](Cc2ccc(O)cc2)C(=O)O)NC(=O)CNC(=O)[C@H](CC(C)C)NC(=O)CNC(=O)[C@H](CO)NC(=O)[C@H](CCC(N)=O)NC(=O)[C@H](C)NC(=O)CNC1=O [hANP, reference compound] | 66% and 66.5 ± 2.3% | – | –
2 | CC[C@H](C)[C@H](NC(=O)[C@H](CCCCN)NC(=O)[C@H](CO)NC(=O)[C@H](CC(=O)O)NC(=O)[C@@H](N)CO)C(=O)NCC(=O)N[C@@H](CC(N)=O)C(=O)NCC(=O)N[C@H]1CSSC[C@@H](C(=O)N[C@@H](CC(N)=O)C(=O)N[C@@H](CCCNC(=N)N)C(=O)N[C@H](C(=O)N[C@@H](CCSC)C(=O)N[C@@H](CCC(N)=O)C(=O)N[C@@H](CC(N)=O)C(=O)N2CCC[C@H]2C(=O)N2CCC[C@H]2C(=O)N[C@@H](CCCCN)C(=O)N[C@@H](CCCCN)C(=O)N[C@@H](Cc2ccccc2)C(=O)N[C@@H](CO)C(=O)NCC(=O)N[C@@H](CCC(=O)O)C(=O)O)[C@@H](C)CC)NC(=O)CNC(=O)[C@H](CC(C)C)NC(=O)CNC(=O)[C@H](CO)NC(=O)[C@H](C(C)C)NC(=O)[C@H](CO)NC(=O)CNC(=O)[C@H]([C@@H](C)CC)NC(=O)[C@H](CCCNC(=N)N)NC(=O)[C@H](CC(=O)O)NC(=O)[C@H](CC(C)C)NC(=O)[C@@H]2CCCN2C(=O)[C@H](Cc2ccccc2)NC(=O)CNC(=O)[C@H](Cc2ccccc2)NC1=O [TNPc] (H-SDSKIGNGCFGFPLDRIGSVSGLGCNRIMQNPPKKFSGE-OH; disulfide 9-25) | 55.0 ± 10.7% | 124000 nM | –
3 | CC[C@H](C)[C@@H]1NC(=O)[C@H](CCCCN)NC(=O)[C@H](Cc2c[nH]cn2)NC(=O)CNC(=O)[C@H](Cc2ccccc2)NC(=O)[C@@H](NC(=O)[C@@H]2CCCN2C(=O)[C@H](CC(=O)O)NC(=O)[C@H](Cc2ccc(O)cc2)NC(=O)[C@H](CCCCN)NC(=O)[C@@H](NC(=O)[C@@H](N)CCC(=O)O)C(C)C)CSSC[C@@H](C(=O)N2CCC[C@H]2C(=O)N[C@@H](CO)C(=O)N[C@@H](CC(C)C)C(=O)N[C@@H](CCCNC(=N)N)C(=O)N[C@@H](CC(=O)O)C(=O)N2CCC[C@H]2C(=O)N[C@@H](CCCNC(=N)N)C(=O)N2CCC[C@H]2C(=O)N[C@@H](CC(N)=O)C(=O)N[C@@H](C)C(=O)N2CCC[C@H]2C(=O)N[C@@H](CO)C(=O)N[C@H](C(=O)N[C@@H](CO)C(=O)N[C@@H](C)C(=O)O)[C@@H](C)O)NC(=O)CNC(=O)[C@H](CC(C)C)NC(=O)[C@H](CC(N)=O)NC(=O)[C@H](CO)NC(=O)[C@H](C(C)C)NC(=O)[C@H](Cc2c[nH]cn2)NC(=O)[C@H](CC(N)=O)NC(=O)[C@H]([C@@H](C)CC)NC(=O)[C@H](CCCNC(=N)N)NC(=O)[C@H](CC(=O)O)NC1=O [DNP, reference compound] (H-EVKYDPCFGHKIDRINHVSNLGCPSLRDPRPNAPSTSA-OH; disulfide 7-23; N-terminus and C-terminus assumed) | – | 0.382 nM | 0.392 nM
